Results on one molecule are retold here after article PMC12067741, “Inhibition of SOD1 trimerization is a novel drug target for ALS disease” (Translational Neurodegeneration, 2025).

Assay [1] concerns the target T1, GST-SOD1-G93A recombinant protein (MT-SOD1) (Homo sapiens, UniProt P00441, G94A).
T1 construct: made in house; host or cells: Escherichia coli BL21 (DE3), pCold GST vector
Briefly: GST pull-down with LC-MS/MS of protein-bound compound. In kind it is binding. As to conditions: GST pull-down and LC-MS/MS. How it is done: To prepare a calibration curve within the PRG-A-04 concentration range of 1–50 ppb, standard solutions (1, 5, 10, 25, 50 ppb) were prepared by dilution with 90% methanol. GST, GST-SOD1 WT, and GST–SOD1-G93A recombinant proteins bound to GST agarose were incubated overnight with PRG-A-04 (20 μmol/L) in cold chamber (4 °C). The samples were washed three times to remove unbound PRG-A-04 from the proteins. The washed sample pellets were incubated with 90% methanol to elute the protein-bound PRG-A-04. The elutes from each sample were analyzed by LC/MS as follows. Both standard samples and control samples underwent the same sample processing procedures as the test samples. The LC–MS/MS analysis was performed on a Waters UPLC Acquity I-class plus system coupled to a Qtrap 6500 plus system (Sciex, Framingham, MA). An Aeris 3.6 μm 100 × 2.1 mm column (Phenomenex, Torrance, CA) was used for separation. The mobile phase consisted of solvent A (water containing 0.1% formic acid) and solvent B (acetonitrile containing 0.1% formic acid). Gradient elution was achieved as follows: […], 90% A, 10% B; 0.37–6.0 min, 55% A, 45% B; 6.0–7.0 min, 5% A, 95% B; 7.0–10.0 min, 90% A, 10% B. The flow rate was 0.4 mL/min. The column temperature was 40 °C, and the sample injection volume was 10 µL. After each injection, the autosampler syringe was washed with methanol. […]

For the next assay, the system named is MT-SOD1 protein uptake. The assay can be described thus: SOD1 recombinant protein uptake into neuronal cells. In kind it is cell-based. How it is done:
For monitoring the localization of SOD1 recombinant proteins, SOD1-Halo proteins were added in neuronal cultures for 2 h and then the cells were incubated with the cell-permeable HaloTag-fluorscent ligands (diAcFAM) for 30 min. After incubation, cells were washed with serum-free culture medium three times and incubated in serum-containing culture medium in a CO2 incubator for 30 min to wash out unbound ligand. Fluorescent images of live cells were obtained using a commercial Tomocube HT-2H holotomography system (Daejeon, Republic of Korea).
We hypothesized that PRG-A-04, which targets trimeric SOD1, would inhibit SOD1 protein uptake. MT-SOD1 proteins were incubated with PRG-A-04 in vitro, and then cells were treated with the mixture. The MT-SOD1 protein uptake was reduced by incubation with PRG-A-04, as was SOD1 oligomerization (Fig. 3f, g). […] However, whether neuron-specific receptors on synapses, physiological conditions (neuronal cellular stress such as ion deficiency, environmental conditions such as hypoxia) and other ALS-related genetic causes (TDP-43, FUS, etc.) are essential for SOD1 uptake requires further study.
Fig. S3 SOD1 protein uptake into the cells through endocytosis. a, The uptake of SOD1 proteins was achieved by endocytosis. SH-SY5Y cells were treated with SOD1 recombinant proteins and endocytosis inhibitor (Dynasore; […]) for 6hr. After incubations, cells were harvested with RIPA and separated by SDS-PAGE. S.E: short exposure, L.E: long exposure. b, The recombinant MT-SOD1 protein is located intracellular space in neuron cells. SOD1-Halo proteins (3 μg/ml) were treated in neuron cells for 2 hr and incubated with HaloTag-fluorscent ligands (cellpermeable ligands; diAcFAM) for 30 min. After incubation, cells were washed with fresh culture medium three times and.
Incubate cells in complete culture medium at CO2 incubator for 30 min to wash unbound ligand. The fluorescence images of live cells were obtained using a commercial holotomography (HT-2H). White arrows indicate the intensity of SOD1. BF; Bright field, Scale bar; […].

“Also recorded” adds a separate entry of the source.

T1 sequence (P00441 whole entry G94A): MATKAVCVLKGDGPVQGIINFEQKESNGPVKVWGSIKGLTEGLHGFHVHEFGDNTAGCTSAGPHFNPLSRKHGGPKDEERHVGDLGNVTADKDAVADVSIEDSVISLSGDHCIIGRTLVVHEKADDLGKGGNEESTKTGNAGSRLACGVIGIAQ

Regarding `COc1cc(C=CCOC2Cc3cc4ccc(=O)oc4cc3OC2(C)C)ccc1[N+](=O)[O-]` (stereo not drawn) [PRG-A-04], in assay [1], the “binding affinity to MT-SOD1 versus WT-SOD1” value is “stronger binding affinity to MT-SOD1 than to WT-SOD1 protein”. Also, the “effect on MT-SOD1 protein uptake” value in the assay with MT-SOD1 protein uptake (MT-SOD1 protein pre-incubated with PRG-A-04 in vitro, then added to neuronal cells) was “selectively inhibited MT-SOD1 uptake; also recorded: reduced”. Further, in the assay on MT-SOD1 protein uptake (neuronal cells), the “effect on SOD1 oligomerization induced by SOD1 protein uptake” value is given as “reduced SOD1 oligomerization induced by SOD1 protein uptake”.
